In patent publication US20230094922A1, “METHODS OF THERAPEUTIC PROGNOSTICATION” (GENETIKAPLUS LTD., priority 2020, published 2023):

Key:
[1] = tested on: iPSC-derived cortical neurons; assay: Dendritic arborization analysis (dendrite length), confocal imaging; assay type: cell-based, human
Protocol: FIG. 7. Analysis of dendritic arborization. Dendritic arborization was analyzed using confocal microscopy in samples treated with Bupropion. Images for dendritic arborization were acquired with a 20× objective in z-stacks and analyzed using Neurolucida software. iPSC differentiation into neurons-iPSCs were seeded at a density of 3×10^6 cells/well on a hESC-qualified Matrigel pre-coated 6-well plate and incubated at 37° C., 5% CO2 overnight. Differentiation was initiated the following day (day 0) after verifying that 100% confluency was reached. Differentiation media was added daily according to the following order: […]7 (day 15 onward) similar to a previously published protocol developed by for rapid differentiation to cortical neurons. The components of the described media, Q1-7, are provided in Appendix 1. Cells were assessed for differentiation efficiency and cell death on a daily basis. […] Neuronal and synaptic morphology was assessed using the Neurolucida software, pre- and post-synaptic marker analysis was performed using CellProfiler and total dendritic length was measured using Fiji software.

[2] = tested on: iPSC-derived cortical neurons; assay: Pre- and post-synaptic marker (Synapsin, PSD95) puncta and colocalization imaging analysis; assay type: cell-based, human; settings: for intact synapses (colocalization of pre- and post-synaptic terminals), treated vs untreated: 7 days after treatment (Bupropion also 3 days)
Protocol: iPSC differentiation into neurons-iPSCs were seeded at a density of 3×10^6 cells/well on a hESC-qualified Matrigel pre-coated 6-well plate and incubated at 37° C., 5% CO2 overnight. Differentiation was initiated the following day (day 0) after verifying that 100% confluency was reached. Differentiation media was added daily according to the following order: […]7 (day 15 onward) similar to a previously published protocol developed by for rapid differentiation to cortical neurons. The components of the described media, Q1-7, are provided in Appendix 1. Cells were assessed for differentiation efficiency and cell death on a daily basis. On day 9, differentiated neurons were re-plated on either 96-well plates (destined for staining) or 12-well plates (destined for RNA extraction) that were coated with 15 μg/mL Poly-ornithine diluted in PBS (overnight incubation at 37° C.), followed by 1 μg/mL Laminin and 2 μg/mL Fibronectin diluted in PBS (overnight incubation at 37° C.): Neurons were first rinsed with pre-warmed PBS and 1 ml/well of Accutase was added for 35 minutes at 37° C., 5% CO2. DNAse1 (0.5 mg/mL) was then added for 10 additional minutes. 3 ml of pre-warmed Neurobasal media was added to each well and neurons were gently collected using a 5 ml […]. Wells were then verified for the presence of any remaining neurons. Neurons were spun down and resuspended in Q6 media. Neurons were seeded at a density of 150,000 cells/cm^2 placed back at 37° C. Following four hours of incubation, media was changed to Q6 media (150 μl per 96-well and 1 ml per 12-well). […] For dendritic arborization analysis, pre/post-synaptic markers and colocalization analysis; α-Syn, PSD95 and MAP2 primary antibodies were used. Following washes, fluorophore-coupled secondary antibodies were incubated in the blocking solution for 1 hour at room temperature. The cells were counter-stained with 4',6-diamidino-2-phenylindole (DAPI) for nuclei detection for 15 minutes at room temperature followed by washes with PBS. Imaging was performed using Nikon Spinning Disk Confocal microscope. For imaging of pre- and post-synaptic markers, images were acquired with a 100× objective in z-stacks. For dendritic arborization analysis, images were acquired with a 20× objective in z-stacks. For imaging of dendritic spines, during culture treatment described in materials and methods, cells were infected at Day 20 with human syn-GFP or mKate virus and stained for GFP or mKate. Cells were fixed as described at day 35 and stained with antibodies against GFP or mKate respectively. Images were acquired using the Nikon Confocal Alit with a 60× objective and a 2× digital zoom in z-stacks and using the Nikon spinning disk Microscope with a 100× objective in z-stacks. Neuronal and synaptic morphology was assessed using the Neurolucida software, pre- and post-synaptic marker analysis was performed using CellProfiler and total dendritic length was measured using Fiji software. Immunohistochemical examination was carried out on the induced neuronal cells.

CC(NC(C)(C)C)C(=O)c1cccc(Cl)c1 (stereo not drawn) [Bupropion, 3-Chloro-N-tert-butyl-β-keto-α-methylphenethylamin]
dendritic length, effect of treatment (significant decrease or not) ([1]; cells derived from non-responders): did not
dendritic length, effect of treatment ([1]; neurons derived from responders): significant decrease in dendritic length
density of post-synaptic terminals (PSD95 puncta), responders vs non-responders ([2]; after treatment): increase in density
intact synapses, responders vs non-responders ([2]; after treatment): increase
size of PSD95 puncta (perimeter), responders vs non-responders ([2]; at baseline and after treatment): reduced
levels of pre-synaptic terminals (Synapsin puncta), responders vs non-responders ([2]; both before and after treatment): significantly higher
pre-synaptic terminals (Synapsin puncta density), following treatment ([2]; both responders and non-responders): increase
Synapsin puncta perimeter size, effect of treatment ([2]; cells from non-responders): reduction in puncta perimeter size
Synapsin puncta perimeter size, effect of treatment ([2]; cells from responders): increase in puncta perimeter size
intact synapses (colocalization of pre- and post-synaptic terminals), treated vs untreated ([2]; neurons from non-responders): increased intact synapses
density of post-synaptic terminals (distance between PSD95 puncta), after vs before treatment ([2]; neurons from responders, 7 days after treatment): significantly increased
intact synapses (colocalization of pre- and post-synaptic terminals), treated vs untreated ([2]; neurons from responders): increased intact synapses
size of PSD95 puncta (perimeter), effect of treatment ([2]; responders and non-responders): no significant effect
